Columns and labels:
[1] = biological target: T1, Muscarinic acetylcholine receptor M4 (Rattus norvegicus, UniProt P08485); test: Positive allosteric modulation of rat muscarinic M4 receptor
T1 sequence (P08485 whole entry): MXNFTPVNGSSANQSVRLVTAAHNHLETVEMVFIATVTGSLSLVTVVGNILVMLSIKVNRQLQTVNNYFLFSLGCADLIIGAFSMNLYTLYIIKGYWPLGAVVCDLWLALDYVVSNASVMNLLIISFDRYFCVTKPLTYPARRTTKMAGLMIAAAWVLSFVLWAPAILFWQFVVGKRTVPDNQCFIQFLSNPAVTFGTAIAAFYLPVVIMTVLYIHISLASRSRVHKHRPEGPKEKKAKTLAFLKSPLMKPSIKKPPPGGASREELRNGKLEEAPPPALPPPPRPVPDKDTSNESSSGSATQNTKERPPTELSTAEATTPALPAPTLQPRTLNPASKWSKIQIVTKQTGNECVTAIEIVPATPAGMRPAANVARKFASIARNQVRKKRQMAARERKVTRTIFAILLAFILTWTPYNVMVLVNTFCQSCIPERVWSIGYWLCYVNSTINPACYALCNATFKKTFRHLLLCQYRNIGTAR

[2] = biological target: T2, Muscarinic acetylcholine receptor M4 (Homo sapiens) (UniProt P08173); test: Positive allosteric modulation of human muscarinic M4 receptor expressed in CHO cells co-expressing Gqi5 assessed as increase in acetylcholine-induced calcium mobilization relative to acetylcholine; type: functional, cell-based
T2 sequence (whole entry): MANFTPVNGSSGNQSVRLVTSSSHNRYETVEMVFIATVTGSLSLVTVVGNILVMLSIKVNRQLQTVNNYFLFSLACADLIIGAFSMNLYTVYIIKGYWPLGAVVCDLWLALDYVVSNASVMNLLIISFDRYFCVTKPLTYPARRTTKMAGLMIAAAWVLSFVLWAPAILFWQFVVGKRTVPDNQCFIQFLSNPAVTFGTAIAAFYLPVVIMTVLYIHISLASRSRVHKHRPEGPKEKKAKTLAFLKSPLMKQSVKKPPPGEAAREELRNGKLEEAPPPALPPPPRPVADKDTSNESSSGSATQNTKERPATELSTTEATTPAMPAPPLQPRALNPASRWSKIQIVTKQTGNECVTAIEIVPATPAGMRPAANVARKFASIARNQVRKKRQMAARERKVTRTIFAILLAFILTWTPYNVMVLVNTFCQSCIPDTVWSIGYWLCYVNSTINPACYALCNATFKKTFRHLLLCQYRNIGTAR

[3] = biological target: T3, Muscarinic acetylcholine receptor M4 (Homo sapiens, UniProt P08173); test: Positive allosteric modulation of human muscarinic M4 receptor expressed in CHO cells co-expressing Gqi5 assessed as increase in acetylcholine-induced calcium mobilization; type: functional, cell-based
T3 sequence (P08173 whole entry): T2 sequence (whole entry)

[4] = Intrinsic clearance in human microsomes; type: ADME, Microsome
[5] = Brain to plasma permeability coefficient, Kp of the compound in Sprague-Dawley rat at 0.2 mg/kg, iv measured after 0.25 hrs; type: ADME, organism-based; details: brain and plasma
[6] = Intrinsic clearance in rat microsomes; type: ADME, Microsome
[7] = Unbound brain-to-plasma concentration ratio in Sprague-Dawley rat at 0.2 mg/kg, iv measured after 0.25 hrs; type: ADME, organism-based; details: brain and plasma, read-out: K(p,uu,brain)
[8] = Unbound fraction in rat plasma; type: ADME, cell-free
[9] = Unbound fraction in rat brain; type: ADME, tissue-based
[10] = Unbound fraction in human plasma; type: ADME, cell-free

Row | Structure (SMILES) | EC50 [1] [nM] | %max [2] [%] | EC50 [3] [nM] | other results
1 | COc1ccc(CNc2ncnc3c2ccc2nn(C)c(C)c23)cc1F | 181 | 95 | 470 | –
2 | Cn1nnc2ccc(C(=O)NC3CN(c4cc(Cl)ncc4Cl)C3)cc21 | 721 | – | – | CLint scaled [4]: 21 mL/min/kg; Kp at 0.25 h [5]: < 0.05; CLint scaled [6]: 10 mL/min/kg; Kp uu at 0.25 h [7]: < 0.11
3 | COc1cc(N2CC(Nc3ncnc4c3ccc3nn(C)c(C)c34)C2)c(Cl)cn1 | 226 | 86 | 379 | fraction unbound [8]: 0.002; fraction unbound [9]: 0.005; CLint scaled [4]: 55 mL/min/kg; Kp at 0.25 h [5]: 1.55; fraction unbound [10]: 0.007; CLint scaled [6]: 120 mL/min/kg; Kp uu at 0.25 h [7]: 3.88
4 | COc1ccc(CNc2ncnc3c2ccc2nnn(C)c23)cc1F | – | 74 | 592 | –
5 | Cc1c2c(ccc3c(NCc4ccc(C(=O)NCC(C)(C)C)cc4)ncnc32)nn1C | – | 90 | 957 | –
6 | Cn1nnc2ccc3c(NC4CCCC4)ncnc3c21 | – | 69 | 820 | –
7 | Cc1c2c(ccc3c(CC(C)(C)C)ncnc32)nn1C | – | 98 | 467 | –
8 | Cn1nnc2ccc3c(NC4CN(c5cc(Cl)ncc5Cl)C4)ncnc3c21 | 148 | 81 | 63 | fraction unbound [8]: 0.007; fraction unbound [9]: 0.003; CLint scaled [4]: 21 mL/min/kg; Kp at 0.25 h [5]: 0.25; fraction unbound [10]: 0.021; CLint scaled [6]: 110 mL/min/kg; Kp uu at 0.25 h [7]: 0.11
9 | Cc1c2c(ccc3c(NC4CCCC4)ncnc32)nn1C | – | 76 | 848 | –
10 | Cc1c2c(ccc3c(N4CCCC4)ncnc32)nn1C | – | 74 | 624 | –
11 | COc1cc(N2CC(Nc3ncnc4c3ccc3nnn(C)c34)C2)c(Cl)cn1 | – | 93 | 1490 | –
12 | Cc1c2c(ccc3c(NCc4ccc(F)c(F)c4)ncnc32)nn1C | – | 86 | 1480 | –
13 | Cn1nnc2ccc(C(=O)NC3CN(c4ccc(F)c(F)c4)C3)c(N)c21 | – | 94 | 2430 | –
14 | [2H]C([2H])(Nc1ncnc2c1ccc1nn(C)c(C)c12)c1ccc(C(C)(C)O)cc1 | – | – | 886 | –
15 | Cn1nnc2ccc3c(NCc4ccc(C(C)(C)O)cc4)ncnc3c21 | – | 97 | 1720 | –
16 | Cc1c2c(ccc3c(NCc4ccc(C(C)(C)O)cc4)ncnc32)nn1C | – | 86 | 552 | %max ([2]; tested as the 2H-labelled form): 86%
17 | Cn1nnc2ccc(C(=O)NC3CN(c4ncc(F)cc4Cl)C3)c(N)c21 | – | 80 | 3600 | –
18 | Cc1c2c(N)c(C(=O)NC3CN(c4ccc(F)c(F)c4)C3)ccc2nn1C | – | 85 | 619 | –
19 | Cn1nnc2ccc(C(=O)NC3CN(c4ncc(Cl)cc4F)C3)c(N)c21 | 167 | 65 | 364 | –

Row | Structure (SMILES) | EC50 [1] [nM] | %max [2] [%] | EC50 [3] [nM] | other results
20 | COc1cc(N2CC(NC(=O)c3ccc4nnn(C)c4c3N)C2)c(Cl)cn1 | 232 | 71 | 373 | –
21 | Cc1c2c(N)c(C(=O)NC3CN(c4ncc(C#N)cc4Cl)C3)ccc2nn1C | 129 | 93 | 158 | –
22 | Cc1c2c(N)c(C(=O)NC3CN(c4cccc(Cl)n4)C3)ccc2nn1C | – | 78 | 1450 | –
23 | Cc1c2c(N)c(C(=O)NC3CN(c4ncc(Cl)cc4F)C3)ccc2nn1C | 72 | 96 | 244 | –
24 | Cn1nnc2ccc(C(=O)NC3CN(c4ccnc(C(F)(F)F)c4)C3)c(N)c21 | – | 79 | 814 | –
25 | Cn1nnc2ccc(C(=O)NC3CN(c4ccc(C#N)cn4)C3)c(N)c21 | – | 60 | 1720 | –
26 | Cc1c2c(N)c(C(=O)NC3CN(c4cc(Cl)ncc4Cl)C3)ccc2nn1C | 42 | 86 | 125 | fraction unbound [8]: 0.01; fraction unbound [9]: 0.025; CLint scaled [4]: 50 mL/min/kg; Kp at 0.25 h [5]: 0.12; fraction unbound [10]: 0.034; CLint scaled [6]: 180 mL/min/kg; Kp uu at 0.25 h [7]: 0.3
27 | Cc1c2c(ccc3c(N4CC5(COC5)C4)ncnc32)nn1C | – | 90 | 528 | –
28 | Cc1c2cc(C(=O)NC3CN(c4cc(Cl)ncc4Cl)C3)ccc2nn1C | 259 | – | – | CLint scaled [4]: 33 mL/min/kg; Kp at 0.25 h [5]: 0.05; CLint scaled [6]: 28 mL/min/kg; Kp uu at 0.25 h [7]: 0.04
29 | Cn1nnc2ccc(C(=O)NC3CN(c4cc(Cl)ncc4Cl)C3)c(N)c21 | 157 | 63 | 91 | fraction unbound [8]: 0.032; fraction unbound [9]: 0.033; CLint scaled [4]: 27 mL/min/kg; Kp at 0.25 h [5]: 0.17; fraction unbound [10]: 0.084; CLint scaled [6]: 120 mL/min/kg; Kp uu at 0.25 h [7]: 0.18
30 | Cc1c2c(N)c(C(=O)NC3CN(c4ncc(F)cn4)C3)ccc2nn1C | – | 90 | 6210 | –
31 | Cc1c2c(N)c(C(=O)NC3CN(c4ncccc4F)C3)ccc2nn1C | – | 103 | 3550 | –
32 | Cc1c2c(ccc3c(NCc4ccc(C(=O)NC5CCCC5)cc4)ncnc32)nn1C | 168 | 100 | 239 | –
33 | COc1cc(N2CC(NC(=O)c3ccc4nn(C)c(C)c4c3N)C2)c(Cl)cn1 | 82 | 80 | 148 | fraction unbound [8]: 0.008; fraction unbound [9]: 0.011; CLint scaled [4]: 9 mL/min/kg; Kp at 0.25 h [5]: 0.18; fraction unbound [10]: 0.045; CLint scaled [6]: 30 mL/min/kg; Kp uu at 0.25 h [7]: 0.25
34 | Cc1c2c(ccc3c(NC4CN(c5cc(Cl)ncc5Cl)C4)ncnc32)nn1C | 254 | 101 | 275 | fraction unbound [8]: 0.004; fraction unbound [9]: 0.002; CLint scaled [4]: 120 mL/min/kg; Kp at 0.25 h [5]: 0.21; fraction unbound [10]: 0.008; CLint scaled [6]: 170 mL/min/kg; Kp uu at 0.25 h [7]: 0.11
35 | Cc1c2c(N)c(C(=O)NC3CN(c4ccc(C(F)(F)F)nc4)C3)ccc2nn1C | 112 | 80 | 137 | –
36 | Cc1c2c(ccc3c(NCc4ccc(C(=O)NC5CCC5)cc4)ncnc32)nn1C | 322 | 100 | 475 | –
37 | Cn1nnc2ccc(C(=O)NC3CN(c4cccc(Cl)n4)C3)c(N)c21 | – | 84 | 4500 | –
38 | Cn1nnc2ccc(C(=O)NC3CN(c4ncc(C#N)cc4Cl)C3)c(N)c21 | – | 83 | 462 | –

From ChEMBL document CHEMBL4610000, “Discovery of structurally distinct tricyclic M4 positive allosteric modulator (PAM) chemotypes” (Bioorg Med Chem Lett, 2020)
